Earlier results on 1 molecule are cited in patent publication US20250228832A1, “METHODS FOR TREATING DISORDERS AMELIORATED BY MUSCARINIC RECEPTOR ACTIVATION” (KARUNA THERAPEUTICS, INC., priority 2022, published 2025).

For the data set the following is noted: 25-75 mg TID, 75-225 mg TDD; cited from earlier work.

Take `CCCCCCOc1nsnc1C1=CCCN(C)C1` [xanomeline, reference compound]: the “positive (psychosis), negative, and cognitive symptoms of schizophrenia” value is “improved”.
